In ChEMBL document CHEMBL1201862, “PubChem BioAssay data set” (2004):
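In this assay, cells in 96-well plates receive the compound at five concentrations for 48 hours. Endpoints are linearly interpolated between the surrounding concentrations. GI50 is the concentration that inhibits growth by half.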 Activity calls are given as the source filed them. Rule as the data show it: active = GI50 up to about 1.1 µM and inactive = higher.

Legend:
Test in all cases: NCI-60 cell line screen, 48 h
OVCAR-3 = system: OVCAR-3
MCF7 = system: MCF7
IGROV-1 = system: IGROV-1
TK-10 = system: TK-10
M14 = system: M14
MDA-MB-231 = system: MDA-MB-231
HCC 2998 = system: HCC 2998
T47D = system: T47D
DU-145 = system: DU-145
SN12C = system: SN12C
MDA-N = system: MDA-N
SK-MEL-5 = system: SK-MEL-5
OVCAR-8 = system: OVCAR-8
BT-549 = system: BT-549
SF-268 = system: SF-268
RXF 393 = system: RXF 393
Malme-3M = system: Malme-3M
SNB-75 = system: SNB-75
HOP-62 = system: HOP-62
NCI-H460 = system: NCI-H460
EKVX = system: EKVX
HL-60 = system: HL-60
CAKI-1 = system: CAKI-1
K562 = system: K562
OVCAR-5 = system: OVCAR-5
U-251 = system: U-251
786-0 = system: 786-0
Hs-578T = system: Hs-578T
OVCAR-4 = system: OVCAR-4
UO-31 = system: UO-31
HOP-92 = system: HOP-92
COLO 205 = system: COLO 205
SK-OV-3 = system: SK-OV-3
UACC-62 = system: UACC-62
HCT-116 = system: HCT-116
SK-MEL-28 = system: SK-MEL-28
MOLT-4 = system: MOLT-4
NCI-H23 = system: NCI-H23
SNB-19 = system: SNB-19
KM12 = system: KM12
SR = system: SR
NCI-H522 = system: NCI-H522
UACC-257 = system: UACC-257
SW-620 = system: SW-620
SF-539 = system: SF-539
MDA-MB-435 = system: MDA-MB-435
PC-3 = system: PC-3
NCI-H226 = system: NCI-H226
A498 = system: A498
SF-295 = system: SF-295
ACHN = system: ACHN
CCRF-CEM = system: CCRF-CEM
A549 = system: A549
HT-29 = system: HT-29
RPMI-8226 = system: RPMI-8226
NCI/ADR-RES = system: NCI/ADR-RES
LOX IMVI = system: LOX IMVI
HCT-15 = system: HCT-15
SK-MEL-2 = system: SK-MEL-2

Measured: GI50

CC1C2CC(CC2=O)C1(C)C (stereo unspecified)
inactive: OVCAR-3 > 100 µM | MCF7 > 100 µM | IGROV-1 > 100 µM | TK-10 > 100 µM | M14 > 100 µM | MDA-MB-231 > 100 µM | HCC 2998 > 100 µM | T47D > 100 µM | DU-145 > 100 µM | SN12C > 100 µM | MDA-N > 100 µM | SK-MEL-5 > 100 µM | OVCAR-8 > 100 µM | BT-549 > 100 µM | SF-268 > 100 µM | RXF 393 > 100 µM | Malme-3M > 100 µM | SNB-75 > 100 µM | HOP-62 > 100 µM | NCI-H460 > 100 µM | EKVX > 100 µM | HL-60 > 100 µM | CAKI-1 > 100 µM | K562 > 100 µM | OVCAR-5 > 100 µM | U-251 > 100 µM | 786-0 > 100 µM | Hs-578T > 100 µM | OVCAR-4 > 100 µM | UO-31 > 100 µM | HOP-92 > 100 µM | COLO 205 > 100 µM | SK-OV-3 > 100 µM | UACC-62 > 100 µM | HCT-116 > 100 µM | SK-MEL-28 > 100 µM | MOLT-4 > 100 µM | NCI-H23 > 100 µM | SNB-19 > 100 µM | KM12 > 100 µM | SR > 100 µM | NCI-H522 > 100 µM | UACC-257 > 100 µM | SW-620 > 100 µM | SF-539 > 100 µM | MDA-MB-435 > 100 µM | PC-3 > 100 µM | NCI-H226 > 100 µM | A498 > 100 µM | SF-295 > 100 µM | ACHN > 100 µM | CCRF-CEM > 100 µM | A549 > 100 µM | HT-29 > 100 µM

CSC1C(=O)Nc2ccc3ccccc3c21 (stereo unspecified)
19.3 µM: HCT-15
inactive: MCF7 38.1 µM | IGROV-1 16.6 µM | TK-10 16.8 µM | M14 23.1 µM | MDA-MB-231 23.2 µM | HCC 2998 > 100 µM | T47D 9.71 µM | DU-145 > 100 µM | SN12C 20.6 µM | MDA-N 56.5 µM | SK-MEL-5 21.9 µM | OVCAR-8 17.7 µM | RPMI-8226 3.13 µM | BT-549 23.8 µM | SF-268 17.4 µM | Malme-3M 27.2 µM | SNB-75 22.8 µM | HOP-62 34.3 µM | NCI-H460 > 100 µM | EKVX 15.8 µM | HL-60 1.54 µM | CAKI-1 19.1 µM | NCI/ADR-RES 29.6 µM | OVCAR-5 > 100 µM | U-251 17.8 µM | 786-0 16.1 µM | Hs-578T 15.3 µM | OVCAR-4 20.2 µM | UO-31 16.1 µM | HOP-92 16.3 µM | COLO 205 22.9 µM | SK-OV-3 > 100 µM | UACC-62 17.5 µM | HCT-116 15.7 µM | SK-MEL-28 > 100 µM | MOLT-4 28.1 µM | NCI-H23 > 100 µM | SNB-19 89.5 µM | KM12 18.6 µM | LOX IMVI 15.7 µM | NCI-H522 2.54 µM | UACC-257 19 µM | SW-620 20.8 µM | SF-539 17.4 µM | MDA-MB-435 > 100 µM | PC-3 16.3 µM | NCI-H226 45.5 µM | SF-295 > 100 µM | SK-MEL-2 27.1 µM | ACHN 27.4 µM | CCRF-CEM 21 µM | A549 > 100 µM | HT-29 > 100 µM

Cc1ccc(C(=O)Nc2ccc(S(=O)(=O)O)c3cc(S(=O)(=O)O)cc(S(=O)(=O)O)c23)cc1N
> 100 µM: HCT-15
inactive: OVCAR-3 > 100 µM | MCF7 > 100 µM | IGROV-1 > 100 µM | TK-10 > 100 µM | M14 > 100 µM | MDA-MB-231 > 100 µM | HCC 2998 > 100 µM | T47D > 100 µM | DU-145 > 100 µM | SN12C > 100 µM | MDA-N > 100 µM | SK-MEL-5 > 100 µM | OVCAR-8 > 100 µM | BT-549 > 100 µM | SF-268 > 100 µM | RXF 393 > 100 µM | Malme-3M > 100 µM | SNB-75 > 100 µM | HOP-62 > 100 µM | NCI-H460 > 100 µM | EKVX > 100 µM | HL-60 > 100 µM | CAKI-1 > 100 µM | NCI/ADR-RES > 100 µM | K562 > 100 µM | OVCAR-5 > 100 µM | 786-0 > 100 µM | Hs-578T > 100 µM | OVCAR-4 > 100 µM | UO-31 > 100 µM | COLO 205 > 100 µM | SK-OV-3 91.6 µM | UACC-62 > 100 µM | HCT-116 > 100 µM | SK-MEL-28 > 100 µM | MOLT-4 > 100 µM | NCI-H23 > 100 µM | SNB-19 > 100 µM | KM12 > 100 µM | SR > 100 µM | NCI-H522 > 100 µM | UACC-257 > 100 µM | SW-620 > 100 µM | SF-539 > 100 µM | PC-3 > 100 µM | NCI-H226 > 100 µM | A498 > 100 µM | SF-295 2.75 µM | SK-MEL-2 > 100 µM | ACHN > 100 µM | CCRF-CEM > 100 µM | HT-29 > 100 µM
